Laboratory results published in ChEMBL document CHEMBL1667844, “Synthesis, structure-activity relationships and preliminary antitumor evaluation of benzothiazole-2-thiol derivatives as novel apoptosis inducers” (Bioorg Med Chem Lett, 2011).

How the values were obtained:
HepG2 [1] = experiment: Cytotoxicity against human HepG2 cells after 48 hrs by MTT assay; format: functional, cell-based; details: HepG2, 48 h
MCF7 = experiment: Cytotoxicity against human MCF7 cells after 48 hrs by MTT assay; format: functional, cell-based; details: MCF7, 48 h
HCT-116 = experiment: Cytotoxicity against human HCT116 cells after 48 hrs by MTT assay; format: functional, cell-based; details: HCT-116, 48 h
SW480 = experiment: Cytotoxicity against human SW480 cells after 48 hrs by MTT assay; format: functional, cell-based; details: SW480, 48 h
SW-620 = experiment: Cytotoxicity against human SW620 cells after 48 hrs by MTT assay; format: functional, cell-based; details: SW-620, 48 h
A549 = experiment: Cytotoxicity against human A549 cells after 48 hrs by MTT assay; format: functional, cell-based; details: A549, 48 h
PC-3 = experiment: Cytotoxicity against human PC3 cells after 48 hrs by MTT assay; format: functional, cell-based; details: PC-3, 48 h
BXPC-3 = experiment: Cytotoxicity against human BxPC3 cells after 48 hrs by MTT assay; format: functional, cell-based; details: BXPC-3, 48 h
A-431 = experiment: Cytotoxicity against human A431 cells after 48 hrs by MTT assay; format: functional, cell-based; details: A-431, 48 h
HeLa = experiment: Cytotoxicity against human HeLa cells after 48 hrs by MTT assay; format: functional, cell-based
A-375 = experiment: Cytotoxicity against human A375 cells after 48 hrs by MTT assay; format: functional, cell-based; details: A-375, 48 h
SK-OV-3 = experiment: Cytotoxicity against human SKOV3 cells after 48 hrs by MTT assay; format: functional, cell-based; details: SK-OV-3, 48 h
MDA-MB-468 = experiment: Cytotoxicity against human MDA-MB-468 cells after 48 hrs by MTT assay; format: functional, cell-based; details: MDA-MB-468, 48 h
SK-BR-3 = experiment: Cytotoxicity against human SK-BR-3 cells after 48 hrs by MTT assay; format: functional, cell-based; details: SK-BR-3, 48 h
HepG2 [2] = experiment: Induction of apoptosis in human HepG2 cells assessed as DNA content at sub-G1 phase at 0.3 uM after 24 hrs using propidium iodide staining by flow cytometry (reference value: 4.3 %); format: functional
HepG2 [3] = experiment: Induction of apoptosis in human HepG2 cells assessed as DNA content at sub-G1 phase at 0.6 uM after 24 hrs using propidium iodide staining by flow cytometry (reference value: 4.3 %); format: functional
HepG2 [4] = experiment: Induction of apoptosis in human HepG2 cells assessed as DNA content at sub-G1 phase at 1.2 uM after 24 hrs using propidium iodide staining by flow cytometry (reference value: 4.3 %); format: functional
HepG2 [5] = experiment: Induction of apoptosis in human HepG2 cells assessed as DNA content at sub-G1 phase after 24 hrs using propidium iodide staining by flow cytometry; format: functional, cell-based
HepG2 [6] = experiment: Induction of apoptosis in human HepG2 cells assessed as morphological changes after 24 hrs using propidium iodide staining by fluorescence microscopic analysis; format: functional, cell-based

Compound: O=C(CSc1nc2ccc(NC(=O)CCl)cc2s1)NCc1ccccc1
- IC50 (HepG2 [1]): 1.1 µM
- IC50 (MCF7): 4.2 µM
- IC50 (HCT-116): 1.3 µM
- IC50 (SW480): 5.2 µM
- IC50 (SW-620): 1.2 µM
- IC50 (A549): 4 µM
- IC50 (PC-3): 6.1 µM
- IC50 (BXPC-3): 6.6 µM
- IC50 (A-431): 4.4 µM
- IC50 (HeLa): 4.9 µM
- IC50 (A-375): 1.8 µM
- IC50 (SK-OV-3): 4.8 µM
- IC50 (MDA-MB-468): 4.1 µM
- IC50 (SK-BR-3): 8.8 µM

Compound: CNC(=O)CSc1nc2ccc(NC(=O)c3ccccc3OC)cc2s1
- IC50 (HepG2 [1]): 18.5 µM
- IC50 (MCF7): 23.4 µM

Compound: COc1ccc(CNC(=O)CSc2nc3ccc(NC(=O)c4ccccc4)cc3s2)cc1
- IC50 (HepG2 [1]): 12.7 µM
- IC50 (MCF7): 21.2 µM

Compound: O=C(CSc1nc2ccc(NC(=O)c3ccc(Cl)cc3)cc2s1)NCc1ccc(Cl)cc1
- IC50 (HepG2 [1]): 17.8 µM
- IC50 (MCF7): 29.3 µM

Compound: CNC(=O)CSc1nc2ccc(NC(=O)CCl)cc2s1
- IC50 (HepG2 [1]): 1.9 µM
- IC50 (MCF7): 5 µM

Compound: O=C(CSc1nc2ccc(NC(=O)c3ccc([N+](=O)[O-])cc3)cc2s1)NCc1ccccc1
- IC50 (HepG2 [1]): > 100 µM
- IC50 (MCF7): > 100 µM

Compound: CNC(=O)CSc1nc2ccc(NC(C)=O)cc2s1
- IC50 (HepG2 [1]): > 100 µM
- IC50 (MCF7): > 100 µM

Compound: CC(=O)Nc1ccc2nc(SCC(=O)NCc3ccccc3)sc2c1
- IC50 (HepG2 [1]): 9.2 µM
- IC50 (MCF7): 17.6 µM

Compound: O=C(CSc1nc2ccc(NC(=O)c3ccc(Cl)cc3)cc2s1)NCc1ccccc1
- IC50 (HepG2 [1]): 25.4 µM
- IC50 (MCF7): 25.9 µM

Compound: CC(=O)Nc1ccc2nc(SCC(=O)NCc3ccc(Cl)cc3)sc2c1
- IC50 (HepG2 [1]): 6.7 µM
- IC50 (MCF7): 10.2 µM

Compound: COc1ccccc1C(=O)Nc1ccc2nc(SCC(=O)NCc3ccc(Cl)cc3)sc2c1
- IC50 (HepG2 [1]): 0.6 µM
- IC50 (MCF7): 1.1 µM
- IC50 (HCT-116): 1.5 µM
- IC50 (SW480): 5.4 µM
- IC50 (SW-620): 4.2 µM
- IC50 (A549): 2 µM
- IC50 (PC-3): 4.6 µM
- IC50 (BXPC-3): 4.4 µM
- IC50 (A-431): 1.1 µM
- IC50 (HeLa): 4.2 µM
- IC50 (A-375): 2.2 µM
- IC50 (SK-OV-3): 6 µM
- IC50 (MDA-MB-468): 2.3 µM
- IC50 (SK-BR-3): 1.2 µM
- Activity (HepG2 [2]): 19.2%
- Activity (HepG2 [3]): 35.9%
- Activity (HepG2 [4]): 55.4%
- Activity (HepG2 [5]): Dose-dependent effect
- Activity (HepG2 [6]): Dose-dependent effect

Compound: CNC(=O)CSc1nc2ccc(NC(=O)c3ccc([N+](=O)[O-])cc3)cc2s1
- IC50 (HepG2 [1]): > 100 µM
- IC50 (MCF7): > 100 µM

Compound: O=C(CSc1nc2ccc(NC(=O)CCl)cc2s1)NCc1ccc(Cl)cc1
- IC50 (HepG2 [1]): 1.8 µM
- IC50 (MCF7): 4.9 µM

Compound: COc1ccc(CNC(=O)CSc2nc3ccc(NC(=O)c4ccccc4OC)cc3s2)cc1
- IC50 (HepG2 [1]): 2.1 µM
- IC50 (MCF7): 9.3 µM

Compound: O=C(CSc1nc2ccc(NC(=O)c3ccccc3)cc2s1)NCc1ccc(Cl)cc1
- IC50 (HepG2 [1]): 30.1 µM
- IC50 (MCF7): 33.7 µM

Compound: CNC(=O)CSc1nc2ccc(NC(=O)c3ccc(Cl)cc3)cc2s1
- IC50 (HepG2 [1]): 15.3 µM
- IC50 (MCF7): 29.4 µM

Compound: COc1ccc(CNC(=O)CSc2nc3ccc(NC(=O)CCl)cc3s2)cc1
- IC50 (HepG2 [1]): 2 µM
- IC50 (MCF7): 5.1 µM

Compound: COc1ccc(CNC(=O)CSc2nc3ccc(NC(=O)c4ccc(Cl)cc4)cc3s2)cc1
- IC50 (HepG2 [1]): 7.4 µM
- IC50 (MCF7): 19.2 µM

Compound: O=C(CSc1nc2ccc(NC(=O)c3ccccc3)cc2s1)NCc1ccccc1
- IC50 (HepG2 [1]): 34.2 µM
- IC50 (MCF7): 35.6 µM

Compound: CNC(=O)CSc1nc2ccc(NC(=O)c3ccccc3)cc2s1
- IC50 (HepG2 [1]): 26.5 µM
- IC50 (MCF7): 34.4 µM

Compound: COc1ccccc1C(=O)Nc1ccc2nc(SCC(=O)NCc3ccccc3)sc2c1
- IC50 (HepG2 [1]): 8 µM
- IC50 (MCF7): 17.2 µM

Compound: COc1ccc(CNC(=O)CSc2nc3ccc(NC(C)=O)cc3s2)cc1
- IC50 (HepG2 [1]): 11.2 µM
- IC50 (MCF7): 20.5 µM

Compound: O=C(CSc1nc2ccc(NC(=O)c3ccc([N+](=O)[O-])cc3)cc2s1)NCc1ccc(Cl)cc1
- IC50 (HepG2 [1]): > 100 µM
- IC50 (MCF7): > 100 µM

Compound: COc1ccc(CNC(=O)CSc2nc3ccc(NC(=O)c4ccc([N+](=O)[O-])cc4)cc3s2)cc1
- IC50 (HepG2 [1]): > 100 µM
- IC50 (MCF7): > 100 µM
